# Measurements taken from the NIST ThermoML archive (doi:10.1021/je301344y).
# ± gives the expanded uncertainty stated by the source.
# Conditions: Fluid (supercritical or subcritical phases), Pulse-echo method
smiles,measurement,setting,value
C=CC [propene],speed of sound,"320 K, 5106.4 kPa",632.55 ± 2.8 m/s
same,speed of sound,"320 K, 6107.1 kPa",653.68 ± 2.7 m/s
same,speed of sound,"320 K, 7107.8 kPa",673.35 ± 2.6 m/s
same,speed of sound,"320 K, 8108.4 kPa",691.81 ± 2.5 m/s
same,speed of sound,"320 K, 9108.4 kPa",709.24 ± 2.5 m/s
same,speed of sound,"320 K, 10109 kPa",725.77 ± 1.3 m/s
same,speed of sound,"320 K, 12611 kPa",763.9 ± 1.2 m/s
same,speed of sound,"320 K, 15112 kPa",798.37 ± 1.2 m/s
same,speed of sound,"320 K, 17614 kPa",829.99 ± 1.2 m/s
same,speed of sound,"320 K, 20116 kPa",859.32 ± 1.1 m/s
same,speed of sound,"320 K, 25119 kPa",912.52 ± 1.1 m/s
same,speed of sound,"320 K, 30123 kPa",960.18 ± 1.1 m/s
same,speed of sound,"320 K, 35126 kPa",1003.6 ± 1 m/s
same,speed of sound,"320 K, 40130 kPa",1043.6 ± 1 m/s
same,speed of sound,"320 K, 45133 kPa",1080.8 ± 1 m/s
same,speed of sound,"320 K, 50136 kPa",1115.7 ± 0.98 m/s
same,speed of sound,"320 K, 60143 kPa",1179.8 ± 1 m/s
same,speed of sound,"320 K, 70150 kPa",1237.9 ± 0.99 m/s
same,speed of sound,"320 K, 80157 kPa",1291.2 ± 0.99 m/s
same,speed of sound,"320 K, 90164 kPa",1340.7 ± 0.99 m/s
same,speed of sound,"340.01 K, 4105 kPa",453.16 ± 3.3 m/s
same,speed of sound,"340.01 K, 5105.7 kPa",489.49 ± 3.3 m/s
same,speed of sound,"340.01 K, 6106.3 kPa",520.38 ± 3.1 m/s
same,speed of sound,"340.01 K, 7107 kPa",547.59 ± 2.9 m/s
same,speed of sound,"340.01 K, 8107.7 kPa",572.12 ± 2.7 m/s
same,speed of sound,"340.01 K, 9108.2 kPa",594.57 ± 2.6 m/s
same,speed of sound,"340.01 K, 10109 kPa",615.36 ± 1.3 m/s
same,speed of sound,"340.01 K, 12611 kPa",661.83 ± 1.3 m/s
same,speed of sound,"340.01 K, 15113 kPa",702.48 ± 1.2 m/s
same,speed of sound,"340.01 K, 17615 kPa",738.94 ± 1.2 m/s
same,speed of sound,"340.01 K, 20117 kPa",772.18 ± 1.1 m/s
same,speed of sound,"340.01 K, 25119 kPa",831.39 ± 1.1 m/s
same,speed of sound,"340.01 K, 30122 kPa",883.53 ± 1 m/s
same,speed of sound,"340.01 K, 35126 kPa",930.45 ± 1 m/s
same,speed of sound,"340.01 K, 40129 kPa",973.32 ± 1 m/s
same,speed of sound,"340.01 K, 45133 kPa",1012.9 ± 0.99 m/s
same,speed of sound,"340.01 K, 50136 kPa",1049.9 ± 0.96 m/s
same,speed of sound,"340.01 K, 60143 kPa",1117.3 ± 0.97 m/s
same,speed of sound,"340.01 K, 70150 kPa",1178 ± 0.97 m/s
same,speed of sound,"340.02 K, 80157 kPa",1233.5 ± 0.96 m/s
same,speed of sound,"340.02 K, 90164 kPa",1284.8 ± 0.97 m/s
same,speed of sound,"340.02 K, 100171 kPa",1332.5 ± 0.99 m/s
same,speed of sound,"360 K, 5105 kPa",311.26 ± 3.7 m/s
same,speed of sound,"360 K, 6105.7 kPa",370.15 ± 3.9 m/s
same,speed of sound,"360 K, 7106.5 kPa",413.28 ± 3.3 m/s
same,speed of sound,"360 K, 8107.1 kPa",448.54 ± 3 m/s
same,speed of sound,"360 K, 9107.8 kPa",478.92 ± 2.8 m/s
same,speed of sound,"360 K, 10109 kPa",505.89 ± 1.3 m/s
same,speed of sound,"360 K, 12610 kPa",563.32 ± 1.3 m/s
same,speed of sound,"360 K, 15112 kPa",611.37 ± 1.2 m/s
same,speed of sound,"360 K, 17614 kPa",653.26 ± 1.1 m/s
same,speed of sound,"360 K, 20116 kPa",690.72 ± 1.1 m/s
same,speed of sound,"360 K, 25119 kPa",756.2 ± 1.1 m/s
same,speed of sound,"360 K, 30122 kPa",812.8 ± 1 m/s
same,speed of sound,"360 K, 35127 kPa",863.13 ± 0.99 m/s
same,speed of sound,"360 K, 40130 kPa",908.71 ± 0.98 m/s
same,speed of sound,"360 K, 45134 kPa",950.58 ± 0.96 m/s
same,speed of sound,"360 K, 50137 kPa",989.41 ± 0.93 m/s
same,speed of sound,"360 K, 60144 kPa",1059.9 ± 0.95 m/s
same,speed of sound,"360 K, 70151 kPa",1123 ± 0.94 m/s
same,speed of sound,"360 K, 80158 kPa",1180.4 ± 0.94 m/s
same,speed of sound,"360 K, 90165 kPa",1233.3 ± 0.94 m/s
same,speed of sound,"360 K, 100172 kPa",1282.4 ± 0.97 m/s
same,speed of sound,"380 K, 7106.1 kPa",268.33 ± 3.3 m/s
same,speed of sound,"380 K, 7357.4 kPa",283.48 ± 3.3 m/s
same,speed of sound,"380 K, 7606.5 kPa",297.29 ± 3.2 m/s
same,speed of sound,"380 K, 7858.2 kPa",310.32 ± 3.1 m/s
same,speed of sound,"380 K, 8106.9 kPa",322.34 ± 3.2 m/s
same,speed of sound,"380 K, 9107.6 kPa",364.56 ± 3.1 m/s
same,speed of sound,"380 K, 10108 kPa",399.84 ± 1.2 m/s
same,speed of sound,"380 K, 12610 kPa",470.55 ± 1.3 m/s
same,speed of sound,"380 K, 15112 kPa",526.72 ± 1.2 m/s
same,speed of sound,"380 K, 17613 kPa",574.26 ± 1.1 m/s
same,speed of sound,"380 K, 20116 kPa",615.93 ± 1 m/s
same,speed of sound,"380 K, 25119 kPa",687.43 ± 1 m/s
same,speed of sound,"380 K, 30123 kPa",748.22 ± 0.99 m/s
same,speed of sound,"380 K, 35126 kPa",801.68 ± 0.96 m/s
same,speed of sound,"380 K, 40130 kPa",849.74 ± 0.95 m/s
same,speed of sound,"380 K, 45134 kPa",893.62 ± 0.94 m/s
same,speed of sound,"380 K, 50137 kPa",934.15 ± 0.9 m/s
same,speed of sound,"380 K, 60144 kPa",1007.4 ± 0.92 m/s
same,speed of sound,"380 K, 70152 kPa",1072.6 ± 0.92 m/s
same,speed of sound,"380 K, 80159 kPa",1131.7 ± 0.92 m/s
same,speed of sound,"380 K, 90166 kPa",1186 ± 0.92 m/s
same,speed of sound,"380 K, 100173 kPa",1236.3 ± 0.95 m/s
same,speed of sound,"400 K, 10108 kPa",309.3 ± 1.1 m/s
same,speed of sound,"400 K, 11109 kPa",343.84 ± 1.2 m/s
same,speed of sound,"400 K, 12110 kPa",374.75 ± 1.2 m/s
same,speed of sound,"400 K, 13110 kPa",402.68 ± 1.1 m/s
same,speed of sound,"400 K, 14111 kPa",428.21 ± 1.2 m/s
same,speed of sound,"400 K, 15111 kPa",451.76 ± 1.1 m/s
same,speed of sound,"400 K, 16111 kPa",473.63 ± 0.99 m/s
same,speed of sound,"400 K, 17110 kPa",494.15 ± 1.1 m/s
same,speed of sound,"400 K, 18112 kPa",513.48 ± 1 m/s
same,speed of sound,"400 K, 19112 kPa",531.79 ± 1.1 m/s
same,speed of sound,"400 K, 20113 kPa",549.2 ± 0.97 m/s
same,speed of sound,"400 K, 22615 kPa",589.41 ± 1 m/s
same,speed of sound,"400 K, 25117 kPa",625.81 ± 0.93 m/s
same,speed of sound,"400 K, 30121 kPa",690.16 ± 0.95 m/s
same,speed of sound,"400 K, 35124 kPa",746.29 ± 0.93 m/s
same,speed of sound,"400 K, 40128 kPa",796.45 ± 0.92 m/s
same,speed of sound,"400 K, 45132 kPa",842.05 ± 0.91 m/s
same,speed of sound,"400 K, 50135 kPa",884.02 ± 0.87 m/s
same,speed of sound,"400 K, 60142 kPa",959.55 ± 0.89 m/s
same,speed of sound,"400.01 K, 70148 kPa",1026.5 ± 0.89 m/s
same,speed of sound,"400.01 K, 80156 kPa",1087 ± 0.89 m/s
same,speed of sound,"400.01 K, 90163 kPa",1142.6 ± 0.9 m/s
same,speed of sound,"400.01 K, 100170 kPa",1194 ± 0.92 m/s
same,speed of sound,"420 K, 12107 kPa",315 ± 0.91 m/s
same,speed of sound,"420 K, 13108 kPa",341.84 ± 0.96 m/s
same,speed of sound,"420 K, 14109 kPa",367.29 ± 0.97 m/s
same,speed of sound,"420 K, 15110 kPa",391.25 ± 0.98 m/s
same,speed of sound,"420 K, 16110 kPa",413.79 ± 0.98 m/s
same,speed of sound,"420 K, 17113 kPa",435.07 ± 0.97 m/s
same,speed of sound,"420 K, 18114 kPa",455.17 ± 0.97 m/s
same,speed of sound,"420 K, 19115 kPa",474.24 ± 0.96 m/s
same,speed of sound,"420 K, 20116 kPa",492.39 ± 0.93 m/s
same,speed of sound,"420 K, 22618 kPa",534.32 ± 0.94 m/s
same,speed of sound,"420 K, 25120 kPa",572.24 ± 0.9 m/s
same,speed of sound,"420 K, 30123 kPa",639.09 ± 0.91 m/s
same,speed of sound,"420 K, 35127 kPa",697.19 ± 0.9 m/s
same,speed of sound,"420 K, 40130 kPa",748.95 ± 0.88 m/s
same,speed of sound,"420 K, 45134 kPa",795.89 ± 0.88 m/s
same,speed of sound,"420 K, 50138 kPa",838.99 ± 0.85 m/s
same,speed of sound,"420 K, 60145 kPa",916.37 ± 0.87 m/s
same,speed of sound,"420 K, 70152 kPa",984.82 ± 0.87 m/s
same,speed of sound,"420 K, 80159 kPa",1046.6 ± 0.89 m/s
